According to US8912139B2, “Peptide compositions and methods for treating lung injury, asthma, anaphylaxis, angioedema, systemic vascular permeability syndromes, and nasal congestion” (The Board of Trustees of the University of Illinois, priority 2011, dated 2014):
“Also recorded” adds a separate entry of the source. Ends that are not written are not given here. Peptide text beside a SMILES is read from it. * marks the point of attachment. Myristoyl = CCCCCCCCCCCCCC(=O)*

Legend:
LPS-induced sepsis = test: Survival in LPS-induced murine model of sepsis; type: in vivo, mice; conditions: for survival rate, LPS LD90, pre-treatment with Myr-EBIN: Myr-EBIN 1 microM/kg i.v. 30 min prior, 1 hr and 24 hrs after LPS
Experimental: (n=11-15 mice/group, p<0.001 AP-IP3R3 vs control treatment (AP control) by ANOVA. Mice were anesthetized prior to retro-orbital i.v. injection of IP3R3 with a mixture of ketamine, 10 mg/ml; xylazine, 0.25 mg/ml and acepromazine, 0.25 mg/ml.
CD-1 mice treated with indicated doses of IP3R3 peptide were i.p. injected with LPS at LD80 dose (50 mg/kg LPS) and were monitored for 5 days. Survival rate (%) was plotted vs. peptide dose in logarithm scale. The sigmoidal dose-response curve was fitted to the data points. n=10 mice/group. Mice were anesthetized prior to retro-orbital injection of peptide with 2.5% isoflurane in room air in an anesthesia induction chamber. Anesthesia was maintained during i.v. injection using a specially designed rodent facemask with a coaxial tube (Harvard Apparatus, AH 72-3026).
Male CD1 mice were challenged by intraperitoneal (i.p.) injection of LD90 doses of LPS. The experimental and control groups received retro-orbital, intravenous (i.v.) injection of EBIN attached to the C-terminus of cell permeant antennapedia peptide (AP) or AP alone at a concentration of 1 microM/kg. Mice were injected tree times, 30 minutes prior to and 1 hr and 24 hrs after LPS administration. Mice were anesthetized prior to retro-orbital injection with a mixture of ketamine (10 mg/ml), xylazine (0.25 mg/ml), and acepromazine (0.25 mg/ml).
FIG. 19 compares the effect of pre- and post treatment with EBIN (SEQ ID NO: 3) on lethality from LPS-induced sepsis. […] Male CD1 mice were challenged by intraperitoneal (i.p.) injection of LD90 doses of LPS. The experimental and control groups received tail vein (i.v.) injection of Myr-EBIN 30 min prior (pre-treatment) or 30 min after (post-treatment) LPS or Myr-control loss-of-binding peptide at a concentration of 1 microM/kg. Pre-treatment group, mice were injected tree times, 30 minutes prior to and 1 hr and 24 hrs after LPS administration; treatment group, mice were injected two times, 30 minutes and 24 hrs after LPS administration. Mice were anesthetized prior to retro-orbital injection with a mixture of ketamine (10 mg/ml), xylazine (0.25 mg/ml), and acepromazine (0.25 mg/ml).
The pharmacological effect of IP3R3 peptide was tested in LPS-induced murine model of sepsis. Male CD1 mice were challenged by intraperitoneal injection (i.p.) of LPS (30 mg/kg body weight) and infiltration of neutrophils in lung, a measure of lung inflammation was determined. Lungs were perfused with PBS, weighed, frozen and used for measuring lung myeloperoxidase (MPO) activity, signature of activated neutrophils. […] Furthermore, it was determined whether IP3R3 peptide protects from polymicrobial sepsis induced by cecal ligation and puncture (CLP). CLP causes lethal peritonitis that is accompanied by acute lung injury (ALI). It is well-excepted and clinically relevant method in experimental rodents.
The dose-response of IP3R3 peptide was further tested in LPS-induced murine model of sepsis. Male CD1 mice were challenged by i.p. injection of LPS at LD80 dose. Mice received a retro-orbital i.v. injection of IP3R3 peptide at doses 0.01, 0.033, 0.1, 0.33, 1.0, 3.3 and 10 μM per kg of the body weight. Mice were injected with IP3R3 peptide three times, 30 minutes prior to, and 1 and 24 hrs after LPS administration. A percent of survived animals in each group was plotted as a function of IP3R3 dose. […] The ED50 (effective dose, 50%) as 80 nM/kg was calculated using a three-parameter logistic equation: y=min+([…])/1+10^LogED50-x Where min and max are minimum and maximum of response.
The effect of EBIN on mortality rate from LPS-induced sepsis was determined. Mice received i.v. retro-orbital injection of AP-EBIN or AP control peptide, 30 minutes prior to and 1 hr after LPS administration at LD90 dose. […] In this experiment, Myr-EBIN was injected in tail vein 30 min and 24 hrs after LPS challenged. […] It is concluded that administration of EBIN prior to systemic inflammation has much higher beneficial outcome.

IP3R = conditions: background statement, MT destabilizing or stabilizing agents; cited from earlier work
lung injury = conditions: background statement; cited from earlier work
HMVECs = test: Thrombin-induced Ca2+ release from stores in HMVECs (Fura 2-AM 340/380 ratio); type: cell-based; conditions: 5 μg/ml taxol for 20 min prior to thrombin stimulation
Experimental: A. HMVECs pre-treated with AP-attached IP3R3 peptide or control (AP) peptide were loaded with Fura 2-AM and 340/380 ratio was calculated after stimulation of cells with thrombin (50 nM) in the absence and in the presence of extracellular Ca^2+. Arrow, time of thrombin addition. […] The increase is normalized to control non-treated cells from the same experiment (n=4).
The effects of IP3R peptide and taxol were compared in regulating Ca^2+ release.

[1] = tested on: histamine-induced vasodilation; test: Awake blood pressure measurement in mice, histamine-induced vasodilation; type: in vivo; conditions: AP-EBIN 1 μM/kg i.v.
Experimental: Awake Blood Pressure Measurement in Mice-Mice were anesthetized and surgically prepared for placement of arterial (carotid) and venous (external jugular) catheters. One hour after surgery the blood pressure was monitored directly using a pressure transducer. Subsequent intravenous (i.v.) injections of AP-EBIN peptide (1 μM/kg body weight; green) or control AP peptide (red) and histamine (10 mg/kg body weight) were performed through jugular vein catheter; the arrow indicates the time of injection.
(§1) The activity of nitric oxide synthase 3(eNOS), an endothelial-specific enzyme that produces NO, is regulated by calcium signaling, particularly, through eNOS interaction with calmodulin, and is a known cause of hyperpermeability of endothelial barrier during inflammation. Because EBIN inhibits calcium signaling it was postulated that the barrier-protective effect of EBIN, in part, is due to inhibition of eNOS. Therefore, the effect of EBIN on basal and agonist-induced production of NO was measured. NO formation was measured using porphyrinic NO electrodes coupled to a FAS1 femtostat and a personal computer with electrochemical software (Gamry Instruments). The electrode current, which is proportional to NO concentration, was measured as a function of time.

EB3/IP3R3 interaction = target: T1, EB3/IP3R3 interaction (Homo sapiens, UniProt Q9UPY8); test: EB3-IP3R3 interaction by immunoprecipitation/Western blot in HPAECs challenged with thrombin; type: cell-based; conditions: HPAECs pretreated with 1 μM AP-EBIN; 50 nM thrombin
T1 construct: HPAECs pretreated with 1 μM AP-EBIN or control peptide (AP) were challenged with 50 nM thrombin; endogenous in cells; host or cells: HPAEC (human pulmonary aorta endothelial cells)
Experimental: HPAECs pretreated with 1 μM AP-EBIN or control peptide (AP) were challenged with 50 nM thrombin. The interaction between EB3 and IP3R3 was analyzed at different time-points after thrombin stimulation. EB3 was immune-precipitated with specific Abs and resulted precipitates were probed for EB3 and IP3R3.
(§2) To determine the inhibitory properties of EBIN in cells, Human Pulmonary Aorta Endothelial Cell (HPAECs) monolayers pretreated with EBIN or with a control peptide at the concentration of 1 μM were challenged with thrombin. The interaction between EB3 and IP3R3 receptor was analyzed using a Western Blot analysis. […] EBIN but not a control peptide mitigated agonist-induced increase in intracellular calcium. [Ca2-F]i transient after stimulation of HPAEC monolayers with pro-inflammatory cytokines.

[2] = tested on: IgE-mediated anaphylactic reaction; test: Subcutaneous vascular leak (Evans Blue) following IgE-mediated anaphylactic reaction; type: in vivo; conditions: mice, intradermal IgE-HSA, HSA challenge 24 hr later; Myr-peptide 1 μM/kg i.v. 30 min prior to HSA
Experimental: Mice received intradermal injection of IgE-HSA in the ear (A) and back (B) and 24 hr later, iv injection of Evans Blue and HSA (1-3) or saline (4-5). Groups 1 and 4 received saline, 2—control peptide (loss-of-binding) and 3 and 5—Myr-EBIN iv injection (1 μM/kg) 30 min prior to HSA. […] C. […] Evans Blue was extracted from ear tissue and Evans Blue concentration was measured at A=620 nm and normalized to the tissue weight. *, p<0.05, n=6 mice/group.
Airway microvascular hyperpermeability, the result of elevated plasma VEGF, is one of the critical factors contributing to abnormal airway function in patients with classic asthma and its cough variant. Because acute allergic asthmatic response is mainly due to IgE-mediated hypersensitivity, we also determined whether EBIN protects from subcutaneous vascular leak following an IgE-mediated anaphylactic reaction. […] These date indicate that EBIN might be effectively used to improve the lung function and overall health of patients with chronic or acute forms of allergic asthma, and curtail the asthmatic inflammatory response.

HPAECs [3] = test: NO production in HPAECs (porphyrinic NO electrodes); type: cell-based, Human; conditions: first 20 min
Experimental: HPAECs were pretreated with control peptide (loss-of-activity) or Myr-EBIN and basal (A, in response to addition of L-arginin) and agonist-induced (B, thrombin and histamine) NO production was measured for the first 20 min stimulation.
as §1

HPAECs [4] = test: Agonist-induced intracellular calcium transient in HPAEC monolayers (Fura-2 340/380); type: cell-based, Human; conditions: 1 μM Myr-peptide, 50 nM thrombin or 90 μM histamine
Experimental: [Ca2+]i transient after stimulation of HPAEC monolayers with 50 nM thrombin (A) or 90 μM histamine (B). Mean value; n=20 cells. Arrow, time of stimulation.
as §2

[5] = 50 mg/kg LPS, vs loss-of-binding peptide

T1 sequence (Q9UPY8 whole entry): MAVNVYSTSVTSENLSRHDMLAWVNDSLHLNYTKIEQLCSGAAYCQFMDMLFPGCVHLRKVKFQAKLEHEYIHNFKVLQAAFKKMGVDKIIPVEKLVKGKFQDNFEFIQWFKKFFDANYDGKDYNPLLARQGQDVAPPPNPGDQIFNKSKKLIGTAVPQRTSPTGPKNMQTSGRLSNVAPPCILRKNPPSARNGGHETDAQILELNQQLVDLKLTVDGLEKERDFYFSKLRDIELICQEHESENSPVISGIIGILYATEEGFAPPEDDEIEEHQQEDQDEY

CC[C@H](C)[C@H](NC(=O)[C@H](C)NC(=O)[C@@H](NC(=O)[C@@H]1CCCN1C(=O)[C@@H](NC(=O)[C@H](CCC(=O)O)NC(=O)[C@@H](NC(=O)[C@H](Cc1c[nH]c2ccccc12)NC(=O)[C@H](CC(C)C)NC(=O)[C@H](CCCNC(=N)N)NC(=O)[C@H](C)NC(=O)[C@H](Cc1ccccc1)NC(=O)[C@@H](N)CCCCN)[C@@H](C)O)[C@@H](C)CC)[C@@H](C)O)C(=O)N[C@H](C(=O)O)[C@@H](C)O [IP3R3 peptide, KFARLWTEIPTAIT] (H-KFARLWTEIPTAIT-OH)
survival / mortality, LD50 LPS challenge (LPS-induced sepsis; 30 mg/kg LPS i.p., peptide i.v. 30 minutes prior to and 1 hr after LPS, vs AP control): marked improvement in survival rate; also recorded: mortality reduction
toxicity within the dose range (LPS-induced sepsis; mice, 0.01 to 10 μM per kg i.v., three injections): low toxicity

COc1cc2c(c(OC)c1OC)-c1ccc(OC)c(=O)cc1[C@@H](NC(C)=O)CC2 [colchicine]
IP3-gated release of Ca2+ (IP3R): inhibits IP3-gated release of Ca2+

COC(=O)Nc1nc2ccc(C(=O)c3cccs3)cc2[nH]1 [nocodazole]
IP3-gated release of Ca2+ (IP3R): inhibits IP3-gated release of Ca2+

CC(=O)O[C@H]1C(=O)[C@@]2(C)[C@H]([C@H](OC(=O)c3ccccc3)[C@]3(O)C[C@H](OC(=O)[C@H](O)[C@@H](NC(=O)c4ccccc4)c4ccccc4)C(C)=C1C3(C)C)[C@]1(OC(C)=O)CO[C@@H]1C[C@@H]2O [taxol]
lung injury in mice models (lung injury): attenuate the lung injury
release of Ca2+ from ER in response to thrombin (HMVECs): inhibits release of Ca^2+ from ER to the same extent as IP3R3 peptide
IP3-gated release of Ca2+ (IP3R): inhibits IP3-gated release of Ca2+

FTEIPTI (EB binding peptide) [EBIN]
baseline (systolic) blood pressure [1]: no effect on baseline blood pressure
histamine-induced blood pressure drop / vasodilation ([1]; histamine 10 mg/kg i.v.): significantly inhibited histamine-induced vasodilation; also recorded: prevented blood pressure drop in response to histamine
interaction between EB3 and IP3R3, basal and after thrombin (EB3/IP3R3 interaction): attenuated basal and thrombin-induced interaction between EB3 and IP3R3; also recorded: markedly reduced
subcutaneous vascular leak (Evans Blue) in ear and back [2]: significantly attenuates subcutaneous vascular leak; also recorded: significantly attenuated
basal NO production (HPAECs [3]; response to L-arginin): no effect; also recorded: did not affect basal NO level
agonist-induced NO production (HPAECs [3]; thrombin and histamine): significantly attenuated agonist-induced NO production
survival rate, LPS LD90, pre-treatment with Myr-EBIN (LPS-induced sepsis; [5]): reduced mortality
survival rate, LPS LD90, post-treatment with Myr-EBIN (LPS-induced sepsis; 50 mg/kg LPS, Myr-EBIN 1 microM/kg tail vein 30 min and 24 hrs after LPS, vs loss-of-binding peptide): insignificant improvement in survival rate; also recorded: some but not significant improvement of the survival
survival / mortality, LPS LD90, AP-EBIN (LPS-induced sepsis; CD1 mice, 50 mg/kg LPS i.p., AP-EBIN 1 microM/kg retro-orbital i.v. starting 30 minutes prior to LPS, 120-hr, vs AP, 50 mg/kg): marked improvement in survival rate; also recorded: reduced mortality
agonist-induced increase in intracellular calcium ([Ca2+]i transient) (HPAECs [4]): significantly inhibited the intracellular calcium flux

Myr-EBIN: myristoylated EBIN (SEQ ID NO: 3) (Myristoyl-FTEIPTI)
survival rate, LPS LD90, pre-treatment with Myr-EBIN (LPS-induced sepsis; [5]): significant increase
agonist-induced increase in intracellular calcium ([Ca2+]i transient) (HPAECs [4]): mitigates agonist-induced increase in intracellular calcium
